Assay results taken from patent US11969408B2, “Method for improving mitophagy in subjects” (Amazentis SA, priority 2017, dated 2024).

How the values were obtained:
Format in all cases: in vivo, human
[1] = Plasma pharmacokinetics after single oral dose (clinical study Part A)
Experimental: Part A: The study was a double-blind, randomized, single ascending doses, study in 24 healthy elderly male and female volunteers. Each subject was randomized for two subsequent doses in three cohorts. Part A: Single oral dose administration on D1 of each period according to the randomisation. The administration took place around 8:00 am with around 200 mL tap water, in sitting position, and under fasting conditions. Cohort 1 (8 subjects): 250 mg urolithin A (6 subjects) or placebo (2 subjects) capsule soft gel formulation then 2000 mg urolithin A or placebo capsule soft gel formulation. Cohort 3 (8 subjects): 1000 mg urolithin A (6 subjects) or placebo (2 subjects) capsule soft gel formulation. After single dosing: Cmax, tmax, AUC0-t, AUC0-∞, t1/2 From the plasma concentration-time data, the following pharmacokinetic parameters will be determined, as data permit using non-compartmental methods: maximum observed plasma concentration (Cmax) (ng/mL), time at which maximum observed plasma concentration (tmax) (h), area under the plasma concentration-time curve AUC(0-24h) (ng/mL*h) and AUC(0-∞) (ng/mL*h), and apparent terminal phase half-life (t1/2) (h). Blood sampling was performed for urolithin A concentration measurements at the exact timepoints with an authorised time window described in the table below: At each time point indicated in the table, a 6 mL blood sample was drawn into K2-EDTA coated tube. The blood samples were gently inverted a few times for complete mixing with the anticoagulant. The exact time of sample collection was recorded on the eCRF. Within 30 minutes following blood collection, each blood sample was centrifuged at 1500 g for 10 minutes at 4° C. From the plasma concentration-time data, the following pharmacokinetic parameters were determined, as data permit using non-compartmental methods: maximum observed plasma concentration (Cmax), time at which maximum observed plasma concentration (tmax), area under the plasma concentration-time curve AUC(0-24h) and AUC(0-∞), and apparent terminal phase half-life (t1/2).

plasma acylcarnitines = test: Plasma metabolomics: acylcarnitine plasma levels
Experimental: Blood sampling was performed for analysis on plasma at the exact time-points described in the table below: Blood handling procedures: at each time point indicated in the table, a 6 mL blood sample was drawn into K2-EDTA coated tube. The blood samples were gently inverted a few times for complete mixing with the anticoagulant. The exact time of sample collection was recorded on the eCRF. Within 30 minutes following blood collection, each blood sample was centrifuged at 1500 g for 10 minutes at 4° C. 30 minutes after the centrifugation, the top layer of human plasma was transferred into 2 pre-labelled polypropylene tubes, containing approximately 1500 μL of plasma. Blood cells were not transferred. All sample tubes were clearly and appropriately labelled. Tubes were capped immediately from each time point and the plasma was be frozen in an upright position at approximately −80° C. for storage. […] Proprietary software was used to match ions to an in-house library of standards for metabolite identification and for metabolite quantitation by peak area integration. A total of 781 metabolites were quantified. […] The grey line in FIG. 11 corresponds to a fold change of 1, i.e. absence of effect. *P<0.05 correspond to a significant effect from D-1 (pre-dose) to D28, calculated after a repeated measures ANOVA. […]

[2] = Plasma pharmacokinetics after 28 day daily oral dosing (clinical study Part B)
Experimental: Part B: The study was a double-blinded, randomized, multiple ascending dose study in 36 healthy elderly male and female volunteers. Each subject was randomised to receive study product or placebo for 28 days. Part B: Repeated oral dose administration from day 1 to day 28 according to the randomization. The administration took place around 8:00 am with around 200 mL tap water, in a sitting position, and under fasting conditions. Cohort 3 (12 subjects): 1000 mg urolithin A (9 subjects) or placebo (3 subjects) soft gel capsule formulation for 28 days. After multiple dosing: Cmax, tmax, AUC0-24h, t1/2 From the plasma concentration-time data, the following pharmacokinetic parameters will be determined, as data permit using non-compartmental methods: maximum observed plasma concentration (Cmax) (ng/mL), time at which maximum observed plasma concentration (tmax) (h), area under the plasma concentration-time curve AUC(0-24h) (ng/mL*h) and AUC(0-∞) (ng/mL*h), and apparent terminal phase half-life (t1/2) (h). Blood sampling was performed for urolithin A concentration measurements at the exact timepoints with an authorised time window described in the table below: At each time point indicated in the table, a 6 mL blood sample was drawn into K2-EDTA coated tube. The blood samples were gently inverted a few times for complete mixing with the anticoagulant. The exact time of sample collection was recorded on the eCRF. Within 30 minutes following blood collection, each blood sample was centrifuged at 1500 g for 10 minutes at 4° C. From the plasma concentration-time data, the following pharmacokinetic parameters were determined, as data permit using non-compartmental methods: maximum observed plasma concentration (Cmax), time at which maximum observed plasma concentration (tmax), area under the plasma concentration-time curve AUC(0-24h) and AUC(0-∞), and apparent terminal phase half-life (t1/2).

- plasma levels of urolithin A per mg dosed (dose-normalised Cmax and AUC) ([1]; 1000 mg dosage compared with 2000 mg dosage, single oral dose): higher plasma levels
- Cmax ([1]; both sexes, human, plasma, single oral dose 1000 mg urolithin A, healthy elderly subjects): 1.92 ng/mL
- AUC ([1]; both sexes, human, plasma, single oral dose 1000 mg urolithin A, healthy elderly subjects, read-out: AUC out to 36 hours): 15.8 ng·h/mL
- pharmacokinetics (Cmax and AUC) at 1000 mg compared with 2000 mg ([1]; oral administration, 1000 mg vs 2000 mg dosage): higher Cmax and AUC
- pharmacokinetic profile over the 28 day period (mean plasma concentrations 24 h after previous dose) ([2]; 500 mg daily dosage, days 0, 7, 14, 28, 29): stable
- Cmax ([2]; both sexes, human, plasma, day 28, daily oral 1000 mg urolithin A for 28 days): 1.97 ng/mL
- AUC ([2]; both sexes, human, plasma, day 28, daily oral 1000 mg urolithin A for 28 days, read-out: AUC out to 24 hours): 17.5 ng·h/mL
SMILES: O=c1oc2cc(O)ccc2c2ccc(O)cc12 [Urolithin A]
- carnitine levels (plasma acylcarnitines; 28 days treatment at 1000 mg): did not change
- plasma short chain up to long chain acylcarnitines (plasma acylcarnitines; after 28 days treatment at 1000 mg, day −1 to day 28): overall decrease
